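Where inhibition never reached the appropriate level, the endpoint shown equals the highest concentration tested. Otherwise, values were interpolated linearly from a five-concentration, 48-hour dose response in 96-well plates. Definition used: TGI = concentration required for complete inhibition of growth.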
Experiments:
Assay in all cases: NCI-60 cell line screen, 48 h
[1] = system: HT29 colon
[2] = system: MCF7 breast
[3] = system: NCI/ADR-RES ovarian
[4] = system: M14 melanoma
[5] = system: UACC-257 melanoma
[6] = system: MDA-N
[7] = system: T-47D breast
[8] = system: UACC-62 melanoma
[9] = system: K-562 leukemia
[10] = system: RXF 393 renal
[11] = system: PC-3 prostate
[12] = system: NCI-H522 lung
[13] = system: HCT-116 colon
[14] = system: SF-295 CNS
[15] = system: OVCAR-5 ovarian
[16] = system: SR leukemia
[17] = system: HCT-15 colon
[18] = system: SN12C renal
[19] = system: OVCAR-3 ovarian
[20] = system: NCI-H23 lung
[21] = system: A549 NSCLC
[22] = system: OVCAR-8 ovarian
[23] = system: SW-620 colon
[24] = system: MDA-MB-435
[25] = system: HOP-62 NSCLC
[26] = system: SK-MEL-28 melanoma
[27] = system: HS 578T breast
[28] = system: MOLT-4 leukemia
[29] = system: SF-539 CNS
[30] = system: NCI-H226 lung
[31] = system: SK-OV-3 ovarian
[32] = system: SF-268 CNS
[33] = system: COLO 205 colon
[34] = system: CCRF-CEM leukemia
[35] = system: CAKI-1 renal
[36] = system: IGROV1 ovarian
[37] = system: SK-MEL-2 melanoma
[38] = system: OVCAR-4 ovarian
[39] = system: SNB-19 CNS
[40] = system: SNB-75 CNS
[41] = system: EKVX NSCLC
[42] = system: BT-549 breast
[43] = system: DU-145 prostate
[44] = system: U251 CNS
[45] = system: MALME-3M melanoma
[46] = system: HOP-92 NSCLC
[47] = system: RPMI-8226 leukemia
[48] = system: MDA-MB-231 breast
[49] = system: 786-0 renal
[50] = system: HCC-2998 colon
[51] = system: TK-10 renal
[52] = system: LOX IMVI melanoma
[53] = system: UO-31 renal
[54] = system: ACHN renal
[55] = system: KM12 colon
[56] = system: NCI-H460 lung
[57] = system: A498 renal
[58] = system: SK-MEL-5 melanoma
[59] = system: HL-60(TB) leukemia

For C/C=C/C=C/c1nc(C#N)c(N)o1, the TGI [1] was > 100 µM, the TGI [2] was > 100 µM and the TGI [3] was > 100 µM. The TGI [4] was > 100 µM, the TGI [5] was > 100 µM and the TGI [6] was > 100 µM. For the same compound, the TGI [7] was > 100 µM, the TGI [8] was > 100 µM and the TGI [9] was > 100 µM. The TGI [10] was > 100 µM, the TGI [11] was > 100 µM and the TGI [12] was > 100 µM. The TGI [13] was > 100 µM, the TGI [14] was > 100 µM and the TGI [15] was > 100 µM. For the same compound, the TGI [16] was > 100 µM, the TGI [17] was > 100 µM and the TGI [18] was > 100 µM. The TGI [19] was > 100 µM, the TGI [20] was > 100 µM and the TGI [21] was > 100 µM. For the same compound, the TGI [22] was > 100 µM, the TGI [23] was > 100 µM and the TGI [24] was > 100 µM. The TGI [25] was > 100 µM, the TGI [26] was > 100 µM and the TGI [27] was > 100 µM. The TGI [28] was > 100 µM, the TGI [29] was > 100 µM and the TGI [30] was > 100 µM. The TGI [31] was > 100 µM, the TGI [32] was > 100 µM and the TGI [33] was > 100 µM. The TGI [34] was > 100 µM, the TGI [35] was > 100 µM and the TGI [36] was > 100 µM. The TGI [37] was > 100 µM, the TGI [38] was > 100 µM and the TGI [39] was > 100 µM. For the same compound, the TGI [40] was > 100 µM, the TGI [41] was > 100 µM and the TGI [42] was > 100 µM. The TGI [43] was > 100 µM, the TGI [44] was > 100 µM and the TGI [45] was > 100 µM. The TGI [46] was > 100 µM, the TGI [47] was > 100 µM and the TGI [48] was > 100 µM. For the same compound, the TGI [49] was > 100 µM, the TGI [50] was > 100 µM and the TGI [51] was > 100 µM. For the same compound, the TGI [52] was > 100 µM, the TGI [53] was > 100 µM and the TGI [54] was > 100 µM.
C=CC[C@]12C[C@@H](C(=O)OC)N(C(=O)OC)[C@H]1N(S(=O)(=O)c1ccccc1)c1ccccc12 was tested, and the TGI [55] was > 100 µM, the TGI [1] was > 100 µM and the TGI [2] was > 100 µM. For the same compound, the TGI [3] was > 100 µM, the TGI [5] was 77.3 µM and the TGI [6] was > 100 µM. For the same compound, the TGI [7] was > 100 µM, the TGI [56] was > 100 µM and the TGI [57] was > 100 µM. The TGI [9] was > 100 µM, the TGI [10] was 66.9 µM and the TGI [11] was > 100 µM. The TGI [12] was > 100 µM, the TGI [13] was > 100 µM and the TGI [15] was > 100 µM. The TGI [16] was > 100 µM, the TGI [17] was > 100 µM and the TGI [18] was > 100 µM. For the same compound, the TGI [19] was > 100 µM, the TGI [20] was > 100 µM and the TGI [21] was > 100 µM. The TGI [22] was > 100 µM, the TGI [23] was > 100 µM and the TGI [24] was > 100 µM. The TGI [25] was > 100 µM, the TGI [26] was > 100 µM and the TGI [27] was > 100 µM. The TGI [28] was > 100 µM, the TGI [29] was > 100 µM and the TGI [30] was > 100 µM. The TGI [31] was > 100 µM, the TGI [32] was > 100 µM and the TGI [34] was > 100 µM. The TGI [35] was > 100 µM, the TGI [36] was > 100 µM and the TGI [37] was > 100 µM. The TGI [38] was > 100 µM, the TGI [39] was > 100 µM and the TGI [40] was > 100 µM. The TGI [41] was > 100 µM, the TGI [42] was > 100 µM and the TGI [43] was > 100 µM. The TGI [44] was > 100 µM, the TGI [45] was > 100 µM and the TGI [46] was > 100 µM. For the same compound, the TGI [47] was > 100 µM, the TGI [48] was > 100 µM and the TGI [49] was > 100 µM. The TGI [50] was > 100 µM, the TGI [51] was > 100 µM and the TGI [53] was > 100 µM. The TGI [58] was > 100 µM, the TGI [59] was > 100 µM and the TGI [54] was > 100 µM.
In the case of C=CCSc1nc2ccccc2c(=O)n1Cc1ccco1, the TGI [55] is reported as > 100 µM, the TGI [1] is reported as > 100 µM and the TGI [2] is reported as > 100 µM. The TGI [3] was > 100 µM, the TGI [4] was > 100 µM and the TGI [5] was > 100 µM. The TGI [6] was > 100 µM, the TGI [7] was > 100 µM and the TGI [56] was > 100 µM. The TGI [57] was > 100 µM, the TGI [8] was > 100 µM and the TGI [9] was > 100 µM. The TGI [10] was > 100 µM, the TGI [11] was > 100 µM and the TGI [12] was > 100 µM. For the same compound, the TGI [13] was > 100 µM, the TGI [14] was > 100 µM and the TGI [15] was > 100 µM. The TGI [16] was > 100 µM, the TGI [17] was > 100 µM and the TGI [18] was > 100 µM. For the same compound, the TGI [19] was > 100 µM, the TGI [20] was > 100 µM and the TGI [21] was > 100 µM. The TGI [22] was > 100 µM, the TGI [23] was > 100 µM and the TGI [24] was > 100 µM. The TGI [25] was > 100 µM, the TGI [26] was > 100 µM and the TGI [27] was > 100 µM. For the same compound, the TGI [29] was > 100 µM, the TGI [30] was > 100 µM and the TGI [31] was > 100 µM. For the same compound, the TGI [32] was > 100 µM, the TGI [33] was > 100 µM and the TGI [35] was > 100 µM. For the same compound, the TGI [36] was > 100 µM, the TGI [37] was > 100 µM and the TGI [38] was > 100 µM. For the same compound, the TGI [39] was > 100 µM, the TGI [40] was > 100 µM and the TGI [41] was > 100 µM. For the same compound, the TGI [42] was > 100 µM, the TGI [43] was > 100 µM and the TGI [44] was > 100 µM. The TGI [45] was > 100 µM, the TGI [46] was > 100 µM and the TGI [47] was > 100 µM. For the same compound, the TGI [48] was > 100 µM, the TGI [49] was > 100 µM and the TGI [50] was > 100 µM. The TGI [51] was > 100 µM, the TGI [52] was > 100 µM and the TGI [53] was > 100 µM. The TGI [58] was > 100 µM and the TGI [54] was > 100 µM.
For CC(O)C1CC1(CO)CNc1cc(Cl)nc(N)n1 (stereo not given), the TGI [55] was > 100 µM, the TGI [1] was > 100 µM and the TGI [2] was > 100 µM. The TGI [3] was > 100 µM, the TGI [5] was > 100 µM and the TGI [6] was > 100 µM. The TGI [7] was > 100 µM, the TGI [56] was > 100 µM and the TGI [9] was > 100 µM. The TGI [10] was > 100 µM, the TGI [11] was > 100 µM and the TGI [12] was > 100 µM. The TGI [13] was > 100 µM, the TGI [14] was > 100 µM and the TGI [15] was > 100 µM. The TGI [16] was > 100 µM, the TGI [17] was > 100 µM and the TGI [18] was > 100 µM. For the same compound, the TGI [19] was > 100 µM, the TGI [20] was > 100 µM and the TGI [21] was > 100 µM. For the same compound, the TGI [22] was > 100 µM, the TGI [23] was > 100 µM and the TGI [24] was > 100 µM. The TGI [25] was > 100 µM, the TGI [26] was > 100 µM and the TGI [27] was > 100 µM. The TGI [28] was > 100 µM, the TGI [29] was > 100 µM and the TGI [30] was > 100 µM. For the same compound, the TGI [31] was > 100 µM, the TGI [32] was > 100 µM and the TGI [33] was > 100 µM. For the same compound, the TGI [34] was > 100 µM, the TGI [35] was > 100 µM and the TGI [36] was > 100 µM. The TGI [37] was > 100 µM, the TGI [38] was > 100 µM and the TGI [39] was > 100 µM. For the same compound, the TGI [40] was > 100 µM, the TGI [41] was > 100 µM and the TGI [42] was > 100 µM. The TGI [43] was > 100 µM, the TGI [44] was > 100 µM and the TGI [45] was > 100 µM. The TGI [46] was > 100 µM, the TGI [47] was > 100 µM and the TGI [48] was > 100 µM. The TGI [49] was > 100 µM, the TGI [50] was > 100 µM and the TGI [51] was > 100 µM. The TGI [52] was > 100 µM, the TGI [53] was > 100 µM and the TGI [58] was > 100 µM. The TGI [59] was > 100 µM and the TGI [54] was > 100 µM.

Source: PubChem BioAssay (NCI)
